The values that follow come from US20050152835A1, “Technetium-99M glucarate methods of use for monitoring tissues” (priority 2003, published 2005).

The test system of data set [1] is plasmocytoma (localized myeloma). The data set is described as follows: Scintigraphy of a patient with plasmocytoma of T8. The format is in vivo, human. To be noted: for scan finding at diagnosis: patient with lytic lesion of T8, posterior view. The protocol:
A patient complaining of invalidation pain in the spine (mid-thorax) for about two months. Peak of monoclonal IgG-k in serum. Bence-Jones protein in urine. Spine CT. lytic lesion of T8, with soft tissue infiltration. […] Uptake was obvious in the early images, 15 and 30 min p.i., late acquisition, 6 hr p.i., made the tracer uptake much more obvious.

In the next data set the test system is MCF7/S tumor xenograft. The data set is described as follows: FASTSPECT dynamic imaging and tumor washout kinetics, drug-sensitive xenograft. The format is in vivo, SCID mice. The protocol: (§1) Tumor cell lines used. MCF7/S: Cells are parental, drug (doxorubicin) sensitive, breast carcinoma cells. MCF7/D40: Cells were generated in vitro by successive culturing parental MCF7 cells in slowly increasing concentrations of doxorubicin with a total selection time of 31 months. Twenty-eight SCID mice were studied. MCF7/S or MCF7/D40 tumors were grown for 10-14 days after subcutaneous injection of 1×10^6 cells into the right thigh. Groups of mice with the xenografted tumors included: (MCF7/S group: MIBI: n=9; GLA: n=8) and (MCF7/D40 group: MIBI: n=6; GLA: n=5).
(§2) The dynamic imaging system SPECT consisted of 24 small modular gamma cameras. Each modular camera consists of a 10 cm×10 cm NaI(Tl) scintillation crystal, 4 square (5 cm×5 cm) Hamamatsu photomultiplier tubes. The system included a cylindrical aperture with twenty four 1-mm diameter pinholes drilled in the aperture. A point source in the center of the field of view is projected simultaneously to the center of each camera. Total magnification is 3.5 in a 3.0 cm×3.2 cm×3.2 cm field of view. The spatial resolution of the system is about 1.0 mm, with a sensitivity of 13.3 cps/μCi.
(§3) ^99mTc-GLA or ^99mTc-MIBI (5-8 mCi, 185-296 MBq) was injected via a jugular vein catheter. Dynamic images were acquired for 2 hours. Twenty-four projections were obtained, one from each camera. Each scintillation event within the camera's NaI crystal was registered as the digitized outputs from the camera's four photomultiplier tubes. The four photomultiplier outputs were compared to a 20-bit look-up table derived from a calibration procedure that involved moving a collimated source across the camera face.
(§4) Tumor image reconstruction was performed using 100 iterations of the maximum-likelihood expectation-maximization (ML-EM) algorithm. Using SlicerDicer software, three-dimensional images were computed to provide images in a 33×49×49 voxels format, and generate tomographic transaxial, coronal and sagittal slices with one-pixel thickness (1.0 mm). Regions of interest (ROI) over the tumors were created and applied to the dynamic images for determining time-activity curves. The percent washout rate relative to the peak uptake of the tumors were calculated.

For a further data set, the system named is MCF7/D40 tumor xenograft. Put plainly: FASTSPECT dynamic imaging and tumor washout kinetics, drug-resistant (Pgp positive) xenograft. The format is in vivo, SCID mice. The settings on record: for time window after injection in which tumor could be localized/visualized: then activity dropped to background. The procedure:
as §1, §2, §3, §4

The subject of another data set is breast cancer. To be noted: cited from earlier work.
The test system of a further data set is MCF7/S tumors. Put plainly: Biodistribution in mice bearing MCF7/S tumors. It counts as in vivo, SCID mice. The protocol: as §1, §3
(§5) Tumors and organs were harvested and counted in a dose calibrator. The percent injected dose per gram (% ID/g) was calculated. Membrane preparations made from MCF7/S and MCF7/D40 tumors were immunoblotted with the mouse monoclonal antibody C219 against Pgp followed by a secondary antibody, which was detected by chemiluminescence. […] No immunodetectable MDR1 Pgp was presented in MCF7/S cells.

The next data set has as its system MCF7/D40 tumors. Put plainly: Biodistribution in mice bearing MCF7/D40 tumors. The format is in vivo, SCID mice. The procedure:
as §1, §3, §5

The test system of a further data set is MCF7/D40 cells. Put plainly: Drug resistance of MCF7/D40 cells relative to MCF7/S. The format is cell-based, human.
For the next data set, the target named is T1, adenosine A1 receptor (Rattus norvegicus, UniProt P25099).
T1 construct: from tissue; host or cells: living rat, heart (myocardium) in vivo
T1 sequence (P25099 1-326): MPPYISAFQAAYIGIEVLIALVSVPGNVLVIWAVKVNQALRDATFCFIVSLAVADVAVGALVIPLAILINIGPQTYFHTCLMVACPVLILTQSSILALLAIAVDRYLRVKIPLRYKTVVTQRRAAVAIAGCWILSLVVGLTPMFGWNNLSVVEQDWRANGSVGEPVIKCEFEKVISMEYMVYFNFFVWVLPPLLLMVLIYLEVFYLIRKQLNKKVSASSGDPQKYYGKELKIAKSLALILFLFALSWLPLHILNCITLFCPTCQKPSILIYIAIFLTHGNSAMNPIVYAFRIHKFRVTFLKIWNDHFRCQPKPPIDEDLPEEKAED
Put plainly: Adenosine receptor-mediated cardioprotection in rat hearts with ischemia-reperfusion, assessed by 99mTc-glucarate imaging. It counts as in vivo.

[2] abbreviates: Table 2, MCF7/S mice, 2 hours after injection.
The mark [3] stands for this setting: Table 4 (Example 3), MCF7/S mice.
Setting [4] is: Table 2, MCF7/D40 mice, 2 hours after injection.
[5] abbreviates: Table 4 (Example 3), MCF7/D40 mice.

Each structure is given as a SMILES string.

Procedure for adenosine A1 receptor: Experimental groups in this example included: Group-I (IR30, n=11): Animals subjected to a treatment of 30-min regional myocardial ischemia and 30-min reperfusion by ligating and releasing the left coronary artery (LCA). Group-II: (IPC Group, n=6): Rats were preconditioned with a sequence of 6 cycles of 4-min LCA occlusion and 4-min re-flow; 10 min later, the rats underwent a 30-min LCA occlusion followed by 30-min re-flow. Group-III (CCPA, n=6): rat chests were opened for the equivalent time for IPC in Group-II. Ten minutes prior to 30-min LCA occlusion and 30-min reperfusion, CCPA (40 μg/kg) was intravenously injected with 5 cycles of 4-min infusion and 4-min no infusion. Group-IV (SPT, n=5): animals subjected to IPC as the protocol in Group-II, SPT (10 mg/kg) was intravenously infused 2-min before and during subsequent ischemia-reperfusion.
Treatments in this example consisted of control (IR30, n=8): no preconditioning; equivalent open-chest time; IPC (n=6): 4-min LCA occlusion, 4-min reflow, 5 cycles; CCPA (n=6): 4-min IV infusion, 4-min no infusion, 5 cycles; SPT (n=4): IPC first, SPT IV infusion 2 min before and during LCA occlusion and re-flow.

`O.O.O=P([O-])([O-])CP(=O)([O-])[O-].[99Tc+4]` [^99mTc-MDP]: the “scan finding at diagnosis” value in data set [1] is on record as “focally increased uptake corresponding to T8”. Moreover, the “scan finding after about 1 year of stabilization and external radiotherapy” value in data set [1] (posterior view) was “inhomogeneous tracer distribution, without clear focally increased uptake”.

On to `[C-]#[N+]CC(C)(C)OC.[C-]#[N+]CC(C)(C)OC.[C-]#[N+]CC(C)(C)OC.[C-]#[N+]CC(C)(C)OC.[C-]#[N+]CC(C)(C)OC.[C-]#[N+]CC(C)(C)OC.[Tc]` [^99mTc-sestamibi, reference compound], for which the “two-hour fractional washout (% peak activity)” value in the data set with MCF7/S tumor xenograft was found to be 50.2±5.3%. Also, in the data set on MCF7/S tumor xenograft (FASTSPECT, 120 min acquisition), the “time after injection until which tumor stayed visualized/detectable” value is 120 min. Moreover, in data set [1], the “scan finding at diagnosis” value is “negative for bone marrow infiltration”. Also, in the data set with MCF7/D40 tumor xenograft, the “two-hour fractional washout (% peak activity)” value turned out to be 71.7±1.7% and the “time window after injection in which tumor could be localized/visualized” value lay in the range of 2 to 4 min. Further, in the data set with MCF7/D40 tumor xenograft (listed as 99mTc-MIBI), the “time window after injection in which tumor could be localized/visualized” value fell in the range of 2 to 3 min. Moreover, in the data set on breast cancer (in vivo), the negative predictive value is on record as 83.4%, the “overall institutional sensitivity for breast cancer detection” value was 75.4%, the “overall institutional specificity for breast cancer detection” value was 82.7% and the positive predictive value was 74.5%. Also, in the data set with breast cancer (tumors under 1 cm), the “sensitivity for tumors under 1 cm in size” value is given as 48.2%. Besides, in the data set with MCF7/S tumors (setting [2]), the “Biodistribution, blood” value turned out to be 0.06 ± 0.01 % ID/gm; the “Biodistribution, heart” value was 10.61 ± 0.89 % ID/gm; the “Biodistribution, kidneys” value turned out to be 21.32 ± 2.03 % ID/gm; the “Biodistribution, liver” value is reported as 7.02 ± 1.01 % ID/gm. Moreover, in the data set on MCF7/S tumors (setting [2]), the “Biodistribution, lung” value came to 0.95 ± 0.16 % ID/gm; the “Biodistribution, muscle” value worked out at 1.37 ± 0.12 % ID/gm; the “Biodistribution, tumor” value was found to be 0.64 ± 0.07 % ID/gm. In the data set on MCF7/S tumors (setting [3]), the “Biodistribution, blood” value came out at 0.06 ± 0.01 % ID/g; the “Biodistribution, heart” value stood at 10.61 ± 0.89 % ID/g; the “Biodistribution, kidneys” value is 21.32 ± 2.03 % ID/g; the “Biodistribution, liver” value was 7.02 ± 1.01 % ID/g. In the data set on MCF7/S tumors (setting [3]), the “Biodistribution, lung” value was 0.95 ± 0.16 % ID/g; the “Biodistribution, muscle” value amounted to 1.37 ± 0.12 % ID/g; the “Biodistribution, tumor” value is listed as 0.64 ± 0.07 % ID/g; the Tumor/Blood ratio is reported as 13.97 ± 2.89. Also, in the data set with MCF7/S tumors (setting [3]), the Tumor/Muscle ratio is 0.48 ± 0.05. Further, in the data set on MCF7/D40 tumors (setting [4]), the “Biodistribution, blood” value was determined as 0.07 ± 0.01 % ID/gm; the “Biodistribution, heart” value is 9.78 ± 1.65 % ID/gm; the “Biodistribution, kidneys” value amounted to 17.71 ± 3.13 % ID/gm; the “Biodistribution, liver” value amounted to 7.67 ± 1.52 % ID/gm. In the data set with MCF7/D40 tumors (setting [4]), the “Biodistribution, lung” value is reported as 0.61 ± 0.12 % ID/gm; the “Biodistribution, muscle” value is reported as 1.09 ± 0.32 % ID/gm; the “Biodistribution, tumor” value was 0.27 ± 0.05 % ID/gm. For the same compound, in the data set on MCF7/D40 tumors (setting [5]), the “Biodistribution, blood” value stood at 0.07 ± 0.01 % ID/g; the “Biodistribution, heart” value is 9.84 ± 1.39 % ID/g; the “Biodistribution, kidneys” value came to 19.63 ± 3.48 % ID/g; the “Biodistribution, liver” value stood at 8.29 ± 1.43 % ID/g. For the same compound, in the data set on MCF7/D40 tumors (setting [5]), the “Biodistribution, lung” value is 0.61 ± 0.10 % ID/g; the “Biodistribution, muscle” value stood at 1.08 ± 0.27 % ID/g; the “Biodistribution, tumor” value is on record as 0.27 ± 0.05 % ID/g; the Tumor/Blood ratio stood at 3.93 ± 0.41. Also, the Tumor/Muscle ratio in the data set on MCF7/D40 tumors (setting [5]) is given as 0.31 ± 0.05.

As for `COc1cccc2c1C(=O)c1c(O)c3c(c(O)c1C2=O)C[C@@](O)(C(=O)CO)C[C@@H]3O[C@H]1C[C@H](N)[C@H](O)[C@H](C)O1` [doxorubicin], the “resistance of MCF7/D40 compared to MCF7/S” value with MCF7/D40 cells turned out to be 40 fold.

On to `OC[C@H]1O[C@@H](n2cnc3c(NC4CCCC4)nc(Cl)nc32)[C@H](O)[C@@H]1O` [CCPA, 2-chloro-N6-cyclopentyladenosine], for which the “effect on cardioprotection of ischemic preconditioning (IPC)” value on adenosine A1 receptor (40 μg/kg i.v. instead of IPC, before 30-min LCA occlusion and 30-min reperfusion) is reported as “simulated”.

In the case of `Cn1c(=O)c2[nH]c(-c3ccc(S(=O)(=O)O)cc3)nc2n(C)c1=O` [SPT, 8-(p-sulfophenyl)-theophylline], on adenosine A1 receptor (10 mg/kg i.v. infusion after IPC, before and during ischemia-reperfusion), the “effect on cardioprotection of ischemic preconditioning (IPC)” value is on record as “blocked”.
